# Values quoted from earlier work, collected in paper PMC8287861 (Frontiers in Microbiology, 2021).
# Tests used:
# Set-up in all cases: method as in Lomovskaya et al. (2020b)
# PAM4743 CTX-M-15 = conditions: PAM4743, CTX-M-15, class A; ref Lomovskaya et al. (2020b)
# PAM4820 CTX-M-25 = conditions: PAM4820, CTX-M-25, class A; ref Lomovskaya et al. (2020b)
# PAM4886 GES-1 = conditions: PAM4886, GES-1, class A; ref Lomovskaya et al. (2020b)
# PAM4800 GES-19 = conditions: PAM4800, GES-19, class A; ref Lomovskaya et al. (2020b)
# PAM4907 PER-4 = conditions: PAM4907, PER-4, class A; ref Lomovskaya et al. (2020b)
# PAM4878 TEM-10 = conditions: PAM4878, TEM-10, class A; ref Lomovskaya et al. (2020b)
# PAM4135 KPC-2 = conditions: PAM4135, KPC-2, class A-CARB; ref Lomovskaya et al. (2020b)
# PAM4864 SFC-1 = conditions: PAM4864, SFC-1, class A-CARB; ref Lomovskaya et al. (2020b)
# PAM4744 SME-2 = conditions: PAM4744, SME-2, class A-CARB; ref Lomovskaya et al. (2020b)
# PAM4676 BKC-1 = conditions: PAM4676, BKC-1, class A-CARB; ref Lomovskaya et al. (2020b)
# PAM4186 CMY-2 = conditions: PAM4186, CMY-2, class C; ref Lomovskaya et al. (2020b)
# PAM4825 MIR-1 = conditions: PAM4825, MIR-1, class C; ref Lomovskaya et al. (2020b)
# PAM4884 ADC-181 = conditions: PAM4884, ADC-181, class C; ref Lomovskaya et al. (2020b)
# PAM4792 OXA-2 = conditions: PAM4792, OXA-2, class D; ref Lomovskaya et al. (2020b)
# PAM4846 OXA-9 = conditions: PAM4846, OXA-9, class D; ref Lomovskaya et al. (2020b)
# PAM4790 OXA-10 = conditions: PAM4790, OXA-10, class D; ref Lomovskaya et al. (2020b)
# PAM4217 OXA-48 = conditions: PAM4217, OXA-48, class D-CARB; ref Lomovskaya et al. (2020b)
# PAM4875 OXA-23 = conditions: PAM4875, OXA-23, class D-CARB; ref Lomovskaya et al. (2020b)
# PAM4876 OXA-72 = conditions: PAM4876, OXA-72, class D-CARB; ref Lomovskaya et al. (2020b)
# PAM4877 OXA-58 = conditions: PAM4877, OXA-58, class D-CARB; ref Lomovskaya et al. (2020b)
# PAM4179 NDM-1 = conditions: PAM4179, NDM-1, class B1; ref Lomovskaya et al. (2020b)
# PAM4795 VIM-1 = conditions: PAM4795, VIM-1, class B1; ref Lomovskaya et al. (2020b)
# PAM4888 IMP-4 = conditions: PAM4888, IMP-4, class B1; ref Lomovskaya et al. (2020b)
# PAM4196 IMP-13 = conditions: PAM4196, IMP-13, class B1; ref Lomovskaya et al. (2020b)
# PAM4890 IMP-19 = conditions: PAM4890, IMP-19, class B1; ref Lomovskaya et al. (2020b)
# PAM4879 CcrA1 = conditions: PAM4879, CcrA1, class B1; ref Lomovskaya et al. (2020b)
SMILES,MIC (PAM4743 CTX-M-15) [µg/mL],MIC (PAM4820 CTX-M-25) [µg/mL],MIC (PAM4886 GES-1) [µg/mL],MIC (PAM4800 GES-19) [µg/mL],MIC (PAM4907 PER-4) [µg/mL],MIC (PAM4878 TEM-10) [µg/mL],MIC (PAM4135 KPC-2) [µg/mL],MIC (PAM4864 SFC-1) [µg/mL],MIC (PAM4744 SME-2) [µg/mL],MIC (PAM4676 BKC-1) [µg/mL],MIC (PAM4186 CMY-2) [µg/mL],MIC (PAM4825 MIR-1) [µg/mL],MIC (PAM4884 ADC-181) [µg/mL],MIC (PAM4792 OXA-2) [µg/mL],MIC (PAM4846 OXA-9) [µg/mL],MIC (PAM4790 OXA-10) [µg/mL],MIC (PAM4217 OXA-48) [µg/mL],MIC (PAM4875 OXA-23) [µg/mL],MIC (PAM4876 OXA-72) [µg/mL],MIC (PAM4877 OXA-58) [µg/mL],other results
"CC(C)(O/N=C(\C(=O)N[C@@H]1C(=O)N2C(C(=O)[O-])=C(C[n+]3ccccc3)CS[C@H]12)c1csc(N)n1)C(=O)O [Ceftazidime, ceftazidime]",32,8,64,>64,>64,>64,16,2,0.5,3,16,16,8,8,0.25,0.25,0.25,0.25,0.25,0.25,MIC (PAM4179 NDM-1): >64 µg/mL; MIC (PAM4795 VIM-1): 64 µg/mL; MIC (PAM4888 IMP-4): >64 µg/mL; MIC (PAM4196 IMP-13): 64 µg/mL; MIC (PAM4890 IMP-19): >64 µg/mL; MIC (PAM4879 CcrA1): 4 µg/mL
"CCN1CCN(C(=O)N[C@@H](C(=O)N[C@@H]2C(=O)N3[C@@H]2SC(C)(C)[C@@H]3C(=O)O)c2ccccc2)C(=O)C1=O [Piperacillin, piperacillin]",>64,>64,4,8,0.5,32,>64,>64,8,32,8,8,1,64,8,0.125,16,16,16,4,MIC (PAM4179 NDM-1): 64 µg/mL; MIC (PAM4795 VIM-1): 16 µg/mL; MIC (PAM4888 IMP-4): 0.5 µg/mL; MIC (PAM4196 IMP-13): 0.5 µg/mL; MIC (PAM4890 IMP-19): 0.25 µg/mL; MIC (PAM4879 CcrA1): 0.25 µg/mL
